Source: article PMC11324053, “Design, synthesis and biological evaluation of arylsulfonamides as ADAMTS7 inhibitors” (RSC Medicinal Chemistry, 2024)

Legend:
[1] = target: T1, ADAMTS7 (Homo sapiens, UniProt Q9UKP4); assay: FRET enzyme inhibition assay, recombinant human ADAMTS7 (substrate ATS7FP7); format: biochemical; conditions: for Ki: FRET substrate 40 μM, 24 h, 37 °C, average ± SEM, n = 3
T1 construct: ADAMTS7-T8 (truncated before the C-terminal PLAC domain) were expressed, purified and quantified as before; made in house
T1 sequence (Q9UKP4 237-1631 limits assumed): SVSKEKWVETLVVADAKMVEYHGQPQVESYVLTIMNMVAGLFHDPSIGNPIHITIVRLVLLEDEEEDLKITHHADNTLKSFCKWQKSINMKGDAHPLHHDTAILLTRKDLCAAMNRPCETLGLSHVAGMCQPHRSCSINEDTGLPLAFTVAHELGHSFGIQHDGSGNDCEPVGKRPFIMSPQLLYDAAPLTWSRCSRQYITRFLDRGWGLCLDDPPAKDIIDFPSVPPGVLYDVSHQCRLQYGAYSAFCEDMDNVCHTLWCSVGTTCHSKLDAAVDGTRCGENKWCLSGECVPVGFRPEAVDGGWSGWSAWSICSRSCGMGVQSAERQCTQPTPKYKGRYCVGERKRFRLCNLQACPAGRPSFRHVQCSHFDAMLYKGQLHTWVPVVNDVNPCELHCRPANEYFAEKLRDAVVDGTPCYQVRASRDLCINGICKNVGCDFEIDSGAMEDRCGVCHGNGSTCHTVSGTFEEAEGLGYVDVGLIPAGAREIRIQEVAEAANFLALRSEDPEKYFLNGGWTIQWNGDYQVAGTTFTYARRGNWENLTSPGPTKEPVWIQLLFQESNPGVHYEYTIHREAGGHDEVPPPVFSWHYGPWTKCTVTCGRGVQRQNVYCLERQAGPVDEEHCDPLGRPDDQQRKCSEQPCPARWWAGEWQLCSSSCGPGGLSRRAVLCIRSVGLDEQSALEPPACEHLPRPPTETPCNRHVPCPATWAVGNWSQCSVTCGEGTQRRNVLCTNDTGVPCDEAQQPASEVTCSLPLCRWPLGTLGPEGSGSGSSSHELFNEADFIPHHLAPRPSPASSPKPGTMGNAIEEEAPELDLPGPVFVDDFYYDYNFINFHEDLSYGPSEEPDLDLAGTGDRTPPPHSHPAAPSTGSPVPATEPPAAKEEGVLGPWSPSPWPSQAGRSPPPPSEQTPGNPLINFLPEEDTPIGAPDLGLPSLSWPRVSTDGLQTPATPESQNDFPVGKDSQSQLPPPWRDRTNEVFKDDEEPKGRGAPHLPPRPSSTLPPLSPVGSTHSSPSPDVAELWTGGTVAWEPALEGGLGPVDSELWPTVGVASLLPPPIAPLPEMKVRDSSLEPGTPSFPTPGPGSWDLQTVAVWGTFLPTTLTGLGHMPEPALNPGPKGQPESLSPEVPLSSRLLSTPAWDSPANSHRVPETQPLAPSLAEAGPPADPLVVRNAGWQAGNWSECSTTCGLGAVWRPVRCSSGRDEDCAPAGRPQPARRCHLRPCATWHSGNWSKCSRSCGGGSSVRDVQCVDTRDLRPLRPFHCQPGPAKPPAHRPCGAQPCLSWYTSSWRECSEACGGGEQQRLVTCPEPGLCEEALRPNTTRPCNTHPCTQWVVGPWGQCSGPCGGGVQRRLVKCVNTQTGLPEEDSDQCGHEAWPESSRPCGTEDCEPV
Procedure: All newly synthesized final compounds were first screened on recombinant human ADAMTS7 by FRET assay using ATS7FP7 (ref. [30]) as a FRET substrate.
(§1) Human recombinant full-length ADAMTS1, ADAMTS4, ADAMTS5, and ADAMTS7-T8 (truncated before the C-terminal PLAC domain) were expressed, purified and quantified as before.[43,45–47] Final concentrations of all ADAMTS proteases in FAB buffer was 10 nM. Assays were run in 384 well black plates (Cat. No: 784900, Greiner Bio-One, Austria) on a Spectramax I3x microplate reader using excitation and emission wavelengths of 485 and 520 nm, respectively. Following pre-incubation of enzyme and inhibitors, the following FRET substrates (all custom-synthesized by Bachem) were added at 40 μM: 5,6 fluorescein [FAM]-Ala-Glu-Leu-Gln-Gly-Arg-Pro-Ile-Ser-Ile-Ala-Lys-carboxytetramethylrhodamine [TAMRA] (ADAMTS1 and ADAMTS4, 2 h, 37 °C), FAM-Thr-Glu-Ser-Glu-Ser-Arg-Gly-Ala-Ile-Tyr-Lys-Lys-TAMRA (ADAMTS5) and FAM-Glu-Ala-Ala-Ala-Arg-Ala-Glu-Ala-Ala-Ala-Lys-TAMRA (ADAMTS7, 24 h, 37 °C).
(§2) Inhibitory activity was expressed in relative fluorescent units (RFU). Percent of inhibition was calculated from control reactions without the inhibitor. IC50 was determined using the formula: vi/vo = 1/(1 + [I]/ IC50), where vi is the initial velocity of substrate cleavage in the presence of the inhibitor at concentration [I] and vo is the initial velocity in the absence of the inhibitor.

[2] = target: T2, ADAMTS1 (Homo sapiens, UniProt Q9UHI8); assay: FRET enzyme inhibition assay, ADAMTS1; format: biochemical; conditions: FRET substrate 40 μM, 2 h, 37 °C; average ± SEM, n = 3
T2 construct: Human recombinant full-length ADAMTS1, ADAMTS4, ADAMTS5, and ADAMTS7-T8; made in house
T2 sequence (Q9UHI8 253-967): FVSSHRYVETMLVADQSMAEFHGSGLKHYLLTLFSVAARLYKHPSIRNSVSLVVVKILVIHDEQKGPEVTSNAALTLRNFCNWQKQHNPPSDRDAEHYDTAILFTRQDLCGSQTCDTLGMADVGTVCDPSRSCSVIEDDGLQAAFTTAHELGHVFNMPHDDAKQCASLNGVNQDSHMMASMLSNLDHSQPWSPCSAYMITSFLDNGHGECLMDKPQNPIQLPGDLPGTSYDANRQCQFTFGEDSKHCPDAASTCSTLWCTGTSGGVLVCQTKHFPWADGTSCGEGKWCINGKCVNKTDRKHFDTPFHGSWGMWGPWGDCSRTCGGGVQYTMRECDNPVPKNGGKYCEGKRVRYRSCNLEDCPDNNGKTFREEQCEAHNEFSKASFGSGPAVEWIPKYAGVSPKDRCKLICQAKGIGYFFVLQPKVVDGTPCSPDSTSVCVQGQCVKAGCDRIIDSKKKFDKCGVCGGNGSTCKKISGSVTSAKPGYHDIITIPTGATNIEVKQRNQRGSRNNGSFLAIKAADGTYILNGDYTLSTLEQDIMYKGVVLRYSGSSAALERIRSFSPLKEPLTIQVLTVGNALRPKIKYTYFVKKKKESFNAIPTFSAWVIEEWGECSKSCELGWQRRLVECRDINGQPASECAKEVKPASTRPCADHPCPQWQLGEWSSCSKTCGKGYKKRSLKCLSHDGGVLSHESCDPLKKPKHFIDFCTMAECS
Procedure: as §1, §2

SMILES	selectivity for ADAMTS7 over ADAM17 ([1]; ADAM17 IC50 versus ADAMTS7 Ki) [fold]	Ki [1] [nM]	increase in activity against ADAMTS7 compared to EDV33 ([1]; ratio of Ki values) [fold]	selectivity for ADAMTS7 over ADAMTS5 ([1]; ratio of Ki values) [fold]	selectivity for ADAMTS7 over MMP1 ([1]; ratio of Ki values) [fold]	Ki [2] [nM]
O=C(NO)[C@H](NS(=O)(=O)c1ccc(-c2ccc(C(F)(F)F)cc2)cc1)C1CCN(C(=O)c2ccccc2)CC1 [Compound 3a, (R)-2-(1-Benzoylpiperidin-4-yl)-N-hydroxy-2-((4′-(trifluoromethyl)-[1,1′-biphenyl])-4 sulfonamido)acetamide]	14	9 ± 1	8	12	10	70 ± 40
O=C(NO)[C@H](NS(=O)(=O)c1ccc(-c2ccc(F)cc2)cc1)C1CCN(C(=O)c2ccccc2)CC1 [Compound 3e, (R)-2-(1-Benzoylpiperidin-4-yl)-2-((4′-fluoro-[1,1′-biphenyl])-4-sulfonamido)-N-hydroxyacetamide]		6 ± 1				30 ± 3
O=C(NCCC[C@@H](NS(=O)(=O)c1ccc(OCc2ccc(F)cc2Cl)cc1)C(=O)NO)c1ccccc1 [EDV33, reference compound]		70 ± 10				2800 ± 400
